According to the NIST ThermoML archive (doi:10.1016/j.fluid.2009.07.010):
± gives the expanded uncertainty stated by the source.

What was measured:
[1] = for mass density: 298.1 K, 101.33 kPa, Liquid, Vibrating tube method; for surface tension liquid-gas: 298.15 K, Drop volume
[2] = xn = mol fraction of the nth substance listed; conditions: 298.15 K; for surface tension liquid-gas: Drop volume; for mass density: 101 kPa, Liquid, Vibrating tube method

CCCCn1cc[n+](C)c1.F[B-](F)(F)F [1-butyl-3-methylimidazolium tetrafluoroborate]
[1]
Conditions	mass density [kg/m3]	surface tension liquid-gas [mN/m]
–	1201.2 ± 0.5	45.33 ± 0.3

CCCCn1cc[n+](C)c1.F[B-](F)(F)F [1-butyl-3-methylimidazolium tetrafluoroborate] + CCO
[2]
Conditions	mass density [kg/m3]	surface tension liquid-gas [mN/m]
x1 = 0.0986	897.2 ± 0.3	22.83 ± 0.15
x1 = 0.2002	977.4 ± 0.3	23.28 ± 0.16
x1 = 0.2553	1010.7 ± 0.3	24.65 ± 0.16
x1 = 0.2881	1027.9 ± 0.3	–
x1 = 0.3284	1046.8 ± 0.3	25.53 ± 0.17
x1 = 0.3999	1075.5 ± 0.4	26.55 ± 0.18
x1 = 0.4202	1082.7 ± 0.4	27.2 ± 0.18
x1 = 0.5024	1108.6 ± 0.4	28.87 ± 0.19
x1 = 0.6082	1135.9 ± 0.4	31.32 ± 0.21
x1 = 0.7107	1157.4 ± 0.4	34.9 ± 0.23
x1 = 0.804	1173.7 ± 0.4	37.99 ± 0.25
x1 = 0.9059	1188.8 ± 0.5	41.54 ± 0.27
x1 = 1	1201.2 ± 0.5	45.33 ± 0.3

CCCCn1cc[n+](C)c1.F[B-](F)(F)F [1-butyl-3-methylimidazolium tetrafluoroborate] + O
[2]
Conditions	mass density [kg/m3]	surface tension liquid-gas [mN/m]
x1 = 0.0001	–	61.54 ± 0.25
x1 = 0.0003	–	61.5 ± 0.25
x1 = 0.0017	1000.9 ± 0.2	–
x1 = 0.0035	1004.8 ± 0.3	–
x1 = 0.0039	–	57.3 ± 0.24
x1 = 0.0052	1008.5 ± 0.3	–
x1 = 0.0058	–	54.34 ± 0.23
x1 = 0.0069	1011.9 ± 0.3	–
x1 = 0.0074	–	51.77 ± 0.22
x1 = 0.0092	1014.4 ± 0.3	–
x1 = 0.0094	–	50.63 ± 0.22
x1 = 0.0197	1030.6 ± 0.3	–
x1 = 0.02	–	46.93 ± 0.21
x1 = 0.0335	1048.2 ± 0.3	–
x1 = 0.0404	–	46.02 ± 0.21
x1 = 0.0498	–	46.27 ± 0.21
x1 = 0.0502	1065.2 ± 0.3	–
x1 = 0.0586	–	46.25 ± 0.21
x1 = 0.0698	–	46.14 ± 0.21
x1 = 0.0736	1084.1 ± 0.3	–
x1 = 0.0799	–	45.99 ± 0.21
x1 = 0.0998	–	46.19 ± 0.22
x1 = 0.1013	–	45.63 ± 0.21
x1 = 0.1072	1103.9 ± 0.3	–
x1 = 0.1081	–	46.23 ± 0.21
x1 = 0.139	–	46.22 ± 0.22
x1 = 0.1398	1118 ± 0.3	–
x1 = 0.1621	–	46.16 ± 0.22
x1 = 0.1688	1128 ± 0.3	–
x1 = 0.1788	–	46.06 ± 0.22
x1 = 0.1818	–	45.91 ± 0.22
x1 = 0.2128	–	45.62 ± 0.22
x1 = 0.252	1148.2 ± 0.3	–
x1 = 0.2963	1156.2 ± 0.3	46.25 ± 0.23
x1 = 0.3734	1166.9 ± 0.3	–
x1 = 0.4067	1169.4 ± 0.3	46.32 ± 0.24
x1 = 0.4408	1171.9 ± 0.3	–
x1 = 0.4946	1177.9 ± 0.4	–
x1 = 0.5252	1178.7 ± 0.4	–
x1 = 0.5304	1181.5 ± 0.4	46.02 ± 0.25
x1 = 0.5723	1181.8 ± 0.4	–
x1 = 0.6	1185 ± 0.4	–
x1 = 0.6326	1187.9 ± 0.4	45.81 ± 0.26
x1 = 0.6922	1189.4 ± 0.4	–
x1 = 0.7065	1191.1 ± 0.4	45.68 ± 0.27
x1 = 0.8003	–	45.52 ± 0.28
x1 = 0.8167	1193.7 ± 0.4	–
x1 = 0.9005	1197.8 ± 0.5	45.41 ± 0.29
x1 = 1	1201.2 ± 0.5	45.33 ± 0.3

CCn1cc[n+](C)c1.F[B-](F)(F)F [1-ethyl-3-methylimidazolium tetrafluoroborate]
[1]
Conditions	mass density [kg/m3]	surface tension liquid-gas [mN/m]
–	1279.9 ± 1.5	52.81 ± 0.57

CCn1cc[n+](C)c1.F[B-](F)(F)F [1-ethyl-3-methylimidazolium tetrafluoroborate] + CCO
[2]
Conditions	mass density [kg/m3]	surface tension liquid-gas [mN/m]
x1 = 0.6087	1190.3 ± 0.7	33.58 ± 0.29
x1 = 0.7056	1225.5 ± 0.9	37.37 ± 0.34
x1 = 0.8072	1241.6 ± 1.1	42.77 ± 0.41
x1 = 0.9054	1262.6 ± 1.3	47.41 ± 0.49
x1 = 1	1279.9 ± 1.5	53.04 ± 0.57

CCn1cc[n+](C)c1.F[B-](F)(F)F [1-ethyl-3-methylimidazolium tetrafluoroborate] + O
[2]
Conditions	mass density [kg/m3]	surface tension liquid-gas [mN/m]
x1 = 0.004	1005.5 ± 0.3	67.38 ± 0.27
x1 = 0.0077	1013.2 ± 0.3	65 ± 0.26
x1 = 0.0123	1021.8 ± 0.3	62.87 ± 0.26
x1 = 0.0132	1023.4 ± 0.3	61.91 ± 0.25
x1 = 0.0288	1046.4 ± 0.3	58.15 ± 0.25
x1 = 0.0483	1068.2 ± 0.3	57.31 ± 0.25
x1 = 0.0709	1088.6 ± 0.3	55.92 ± 0.25
x1 = 0.102	1111.7 ± 0.3	55.24 ± 0.25
x1 = 0.1418	1135.8 ± 0.3	54.43 ± 0.26
x1 = 0.2141	1169.1 ± 0.4	53.8 ± 0.27
x1 = 0.2191	1171 ± 0.4	–
x1 = 0.2894	–	54.15 ± 0.3
x1 = 0.3118	1200.3 ± 0.4	–
x1 = 0.4011	–	54.01 ± 0.33
x1 = 0.4551	1230 ± 0.5	–
x1 = 0.4987	1236.7 ± 0.6	–
x1 = 0.5074	–	53.88 ± 0.37
x1 = 0.5923	1248.6 ± 0.7	–
x1 = 0.6018	–	53.73 ± 0.41
x1 = 0.691	1258.5 ± 0.8	–
x1 = 0.7534	–	53.51 ± 0.47
x1 = 0.7774	1265.5 ± 1	–
x1 = 0.9015	–	53.25 ± 0.53
x1 = 1	1279.9 ± 1.5	53.04 ± 0.57

CCCCCCn1cc[n+](C)c1.F[B-](F)(F)F [1-hexyl-3-methylimidazolium tetrafluoroborate]
[1]
Conditions	mass density [kg/m3]	surface tension liquid-gas [mN/m]
–	1145.4 ± 0.4	37.33 ± 0.26

CCCCCCn1cc[n+](C)c1.F[B-](F)(F)F [1-hexyl-3-methylimidazolium tetrafluoroborate] + CCO
[2]
Conditions	mass density [kg/m3]	surface tension liquid-gas [mN/m]
x1 = 0.098	893.9 ± 0.3	23.11 ± 0.15
x1 = 0.1998	964.6 ± 0.3	24.21 ± 0.16
x1 = 0.3	1011.9 ± 0.3	25.62 ± 0.17
x1 = 0.3991	1046.1 ± 0.3	27.09 ± 0.18
x1 = 0.5079	1073.7 ± 0.3	28.82 ± 0.19
x1 = 0.6123	1095.5 ± 0.4	30.74 ± 0.2
x1 = 0.702	1108.8 ± 0.4	32.47 ± 0.22
x1 = 0.803	1123.9 ± 0.4	34.22 ± 0.23
x1 = 0.9	1134.7 ± 0.4	35.75 ± 0.24
x1 = 1	1145.5 ± 0.4	37.33 ± 0.26

CCCCCCn1cc[n+](C)c1.F[B-](F)(F)F [1-hexyl-3-methylimidazolium tetrafluoroborate] + O
[2]
Conditions	mass density [kg/m3]	surface tension liquid-gas [mN/m]
x1 = 0.3032	1115.8 ± 0.3	37.93 ± 0.2
x1 = 0.4059	1123.9 ± 0.3	37.79 ± 0.21
x1 = 0.5058	1129.2 ± 0.3	37.65 ± 0.21
x1 = 0.6061	1133.8 ± 0.3	37.52 ± 0.22
x1 = 0.7057	1137.4 ± 0.4	37.4 ± 0.23
x1 = 0.803	1140.3 ± 0.4	37.35 ± 0.24
x1 = 0.9002	1142.6 ± 0.4	37.33 ± 0.25
x1 = 1	1145.5 ± 0.4	37.33 ± 0.26

CCCCCCCC[n+]1ccn(C)c1.F[B-](F)(F)F [1-methyl-3-octylimidazolium tetrafluoroborate]
[1]
Conditions	mass density [kg/m3]	surface tension liquid-gas [mN/m]
–	1104.2 ± 0.4	32.84 ± 0.23

CCCCCCCC[n+]1ccn(C)c1.F[B-](F)(F)F [1-methyl-3-octylimidazolium tetrafluoroborate] + CCO
[2]
Conditions	mass density [kg/m3]	surface tension liquid-gas [mN/m]
x1 = 0.1012	893 ± 0.3	23.33 ± 0.15
x1 = 0.2034	957.9 ± 0.3	24.7 ± 0.16
x1 = 0.3	996.6 ± 0.3	25.99 ± 0.17
x1 = 0.4096	1026.4 ± 0.3	27.28 ± 0.18
x1 = 0.5125	1047.8 ± 0.3	27.9 ± 0.19
x1 = 0.6156	1065.2 ± 0.3	28.88 ± 0.19
x1 = 0.7207	1079.3 ± 0.4	29.9 ± 0.2
x1 = 0.815	1088.8 ± 0.4	30.86 ± 0.21
x1 = 0.9014	1095.6 ± 0.4	31.84 ± 0.22
x1 = 1	1104.2 ± 0.4	32.82 ± 0.23

CCO [ethanol]
[1]
Conditions	mass density [kg/m3]	surface tension liquid-gas [mN/m]
–	785.8 ± 0.2	22 ± 0.15

CCO [ethanol] + CCn1cc[n+](C)c1.F[B-](F)(F)F
[2], x2 = 0
Conditions	mass density [kg/m3]	surface tension liquid-gas [mN/m]
–	785.8 ± 0.2	52.81 ± 0.26

O [water]
Conditions	surface tension liquid-gas [mN/m]
[1]	71.35 ± 0.28

O [water] + CCCCn1cc[n+](C)c1.F[B-](F)(F)F
Conditions	surface tension liquid-gas [mN/m]
[2], x2 = 0	71.35 ± 0.28

O [water] + CCn1cc[n+](C)c1.F[B-](F)(F)F
Conditions	surface tension liquid-gas [mN/m]
[2], x2 = 0	71.35 ± 0.28
